Patent US20120083476A1, “HETEROARYL-SUBSTITUTED SPIROCYCLIC DIAMINE UREA MODULATORS OF FATTY ACID AMIDE HYDROLASE” (Janssen Pharmaceutica NV, priority 2009, published 2012)
Structures can show the parent of a compound that is named as a salt.

The compounds below were run against T1, FAAH (Homo sapiens, UniProt O00519) (assay: Assay Method 1: human FAAH assay (3H-anandamide hydrolysis in cell homogenate)). Details: read-out: Assay 1 IC50.
T1 sequence (O00519 1-579): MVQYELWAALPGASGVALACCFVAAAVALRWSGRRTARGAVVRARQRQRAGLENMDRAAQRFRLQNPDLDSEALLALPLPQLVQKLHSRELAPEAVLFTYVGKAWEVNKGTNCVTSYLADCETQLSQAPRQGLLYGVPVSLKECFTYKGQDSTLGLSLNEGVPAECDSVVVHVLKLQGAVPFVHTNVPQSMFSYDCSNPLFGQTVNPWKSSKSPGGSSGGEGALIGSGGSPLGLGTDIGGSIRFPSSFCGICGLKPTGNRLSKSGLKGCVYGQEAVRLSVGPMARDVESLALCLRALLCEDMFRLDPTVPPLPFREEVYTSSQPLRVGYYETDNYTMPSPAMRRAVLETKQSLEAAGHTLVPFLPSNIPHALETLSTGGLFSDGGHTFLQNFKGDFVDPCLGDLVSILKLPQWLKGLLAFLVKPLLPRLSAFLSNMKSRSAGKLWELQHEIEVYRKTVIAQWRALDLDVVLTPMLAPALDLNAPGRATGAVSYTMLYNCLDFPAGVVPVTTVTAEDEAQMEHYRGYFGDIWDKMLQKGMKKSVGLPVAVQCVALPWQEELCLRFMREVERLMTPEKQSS
Type: biochemical
Set-up: expressed in transfected cells; host or cells: SK-N-MC cells stably transfected with human FAAH cDNA (G418 selection); alternatively T84 cell pellets
Description: A. Transfection of Cells with Human FAAH
A 10-cm tissue culture dish with a confluent monolayer of SK-N-MC cells was split 2 days (d) prior to transfection. Using sterile technique, the media was removed and the cells were detached from the dish by the addition of trypsin. One fifth of the cells were then placed onto a new 10-cm dish. Cells were grown in a 37° C. incubator with 5% CO2 in Minimal Essential Media Eagle with 10% Fetal Bovine Serum. After 2 d, cells were approximately 80% confluent. These cells were removed from the dish with trypsin and pelleted in a clinical centrifuge. The pellet was re-suspended in 400 μL complete media and transferred to an electroporation cuvette with a 0.4 cm gap between the electrodes. Supercoiled human FAAH cDNA (1 μg) was added to the cells and mixed. The voltage for the electroporation was set at 0.25 kV, and the capacitance was set at 960 μF. After electroporation, the cells were diluted into complete media (10 mL) and plated onto four 10-cm dishes. Because of the variability in the efficiency of electroporation, four different concentrations of cells were plated. […] The cells were allowed to recover for 24 h before adding the selection media (complete media with 600 μg/mL G418). After 10 d, dishes were analyzed for surviving colonies of cells. Dishes with well-isolated colonies were used. Cells from individual colonies were isolated and tested.
T84 frozen cell pellets or transfected SK-N-MC cells (contents of 1×15 cm culture dishes) were homogenized in 50 mL of FAAH assay buffer (125 mM Tris, 1 mM EDTA, 0.2% Glycerol, 0.02% Triton X-100, 0.4 mM Hepes, pH 9). The assay mixture consisted of 50 μL of the cell homogenate, 10 μL of the test compound, and 40 μL of anandamide [1-^3H-ethanolamine] (^3H-AEA, Perkin-Elmer, 10.3 Ci/mmol), which was added last, for a final tracer concentration of 80 nM. The reaction mixture was incubated at rt for 1 h. During the incubation, 96-well Multiscreen filter plates (catalog number MAFCNOB50; Millipore, Bedford, Mass., USA) were loaded with 25 of activated charcoal (Multiscreen column loader, catalog number MACL09625, Millipore) and washed once with 100 μL of MeOH. Also during the incubation, 96-well DYNEX MicroLite plates (catalog number NL510410) were loaded with 100 μL of MicroScint40 (catalog number 6013641, Packard Bioscience, Meriden, Conn., USA). After the 1 h incubation, 60 μL of the reaction mixture were transferred to the charcoal plates, which were then assembled on top of the DYNEX plates using Centrifuge Alignment Frames (catalog number MACF09604, Millipore). The unbound labeled ethanolamine was centrifuged through to the bottom plate (5 min at 2000 rpm), which was preloaded with the scintillant, as described above. The plates were sealed and left at rt for 1 h before counting on a Hewlett Packard TopCount.
Compounds were tested in free base or trifluoroacetic acid salt forms.
`O=C(Nc1cccnc1F)N1CC2(CCN(Cc3cccc(Oc4ccc(Cl)cc4)c3)CC2)C1` [Example 80, 7-(3-(4-chlorophenoxy)benzyl)-N-(2-fluoropyridin-3-yl)-2,7-diazaspiro[3.5]nonane-2-carboxamide, trifluoroacetic acid salt] was tested, and the IC50 was 0.14 µM. Work on `O=C(Nc1cnc2[nH]ccc2c1)N1CC2(CCN(Cc3ccc4c(c3)OC(F)(F)O4)CC2)C1` [Example 89, 7-(2,2-Difluoro-benzo[1,3]dioxol-5-ylmethyl)-2,7-diaza-spiro[3.5]nonane-2-carboxylic acid (1H-pyrrolo[2,3-b]pyridin-5-yl)-amide] yielded an IC50 of 0.5 µM. `O=C(Nc1cccnc1)N1CCC2(CCCN2Cc2cccc(Oc3ccc(Cl)cc3)c2)C1` (stereo not drawn) [Example 7, 1-[3-(4-Chloro-phenoxy)-benzyl]-1,7-diaza-spiro[4.4]nonane-7-carboxylic acid pyridin-3-ylamide] showed an IC50 of 9 µM. `O=C(Nc1cccnc1)N1CC2(CCN(Cc3cccc(Oc4ccc(OCC(F)(F)F)cc4)c3)CC2)C1` [Example 128, 7-{3-[4-(2,2,2-Trifluoro-ethoxy)-phenoxy]-benzyl}-2,7-diaza-spiro[3.5]nonane-2-carboxylic acid pyridin-3-ylamide] gave an IC50 of 8 µM.

What follows are compounds tested against T2, Rat FAAH (Rattus norvegicus, UniProt P97612) (assay: Assay Method 2: rat FAAH assay (3H-anandamide hydrolysis in cell homogenate)). Details: read-out: Assay 2 IC50.
T2 construct: expressed in transfected cells; host or cells: SK-N-MC cells stably transfected with rat FAAH cDNA (G418 selection)
T2 sequence (P97612 1-579): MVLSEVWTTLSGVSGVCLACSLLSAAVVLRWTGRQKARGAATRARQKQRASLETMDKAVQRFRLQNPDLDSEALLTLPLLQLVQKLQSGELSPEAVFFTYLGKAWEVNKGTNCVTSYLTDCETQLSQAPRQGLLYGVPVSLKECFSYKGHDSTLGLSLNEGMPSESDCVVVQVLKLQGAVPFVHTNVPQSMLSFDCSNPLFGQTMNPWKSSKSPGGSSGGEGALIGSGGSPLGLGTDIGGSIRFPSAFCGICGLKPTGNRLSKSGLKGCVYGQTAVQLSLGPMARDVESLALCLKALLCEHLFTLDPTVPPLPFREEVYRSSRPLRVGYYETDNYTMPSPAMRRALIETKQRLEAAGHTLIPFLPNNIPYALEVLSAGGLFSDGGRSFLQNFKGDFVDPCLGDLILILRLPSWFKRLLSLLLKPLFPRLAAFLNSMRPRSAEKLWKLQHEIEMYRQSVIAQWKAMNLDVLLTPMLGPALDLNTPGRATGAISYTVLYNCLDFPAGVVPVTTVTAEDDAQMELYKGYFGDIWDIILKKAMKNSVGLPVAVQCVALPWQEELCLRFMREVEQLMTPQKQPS
Type: biochemical
Description: A. Transfection of Cells with Rat FAAH A 10-cm tissue culture dish with a confluent monolayer of SK-N-MC cells was split 2 days (d) prior to transfection. Using sterile technique, the media was removed and the cells were detached from the dish by the addition of trypsin. One fifth of the cells were then placed onto a new 10-cm dish. Cells were grown in a 37° C. incubator with 5% CO2 in Minimal Essential Media Eagle with 10% Fetal Bovine Serum. After 2 d, cells were approximately 80% confluent. These cells were removed from the dish with trypsin and pelleted in a clinical centrifuge. The pellet was re-suspended in 400 μL complete media and transferred to an electroporation cuvette with a 0.4 cm gap between the electrodes. Supercoiled rat FAAH cDNA (1 μg) was added to the cells and mixed. The voltage for the electroporation was set at 0.25 kV, and the capacitance was set at 960 μF. After electroporation, the cells were diluted into complete media (10 mL) and plated onto four 10-cm dishes. Because of the variability in the efficiency of electroporation, four different concentrations of cells were plated. The ratios used were 1:20, 1:10, and 1:5, with the remainder of the cells being added to the fourth dish. The cells were allowed to recover for 24 h before adding the selection media (complete media with 600 μg/mL G418). After 10 d, dishes were analyzed for surviving colonies of cells. Dishes with well-isolated colonies were used. Cells from individual colonies were isolated and tested. […] B. FAAH Assay T84 frozen cell pellets or transfected SK-N-MC cells (contents of 1×15 cm culture dishes) were homogenized in 50 mL of FAAH assay buffer (125 mM Tris, 1 mM EDTA, 0.2% Glycerol, 0.02% Triton X-100, 0.4 mM Hepes, pH 9). […] The reaction mixture was incubated at rt for 1 h. During the incubation, 96-well Multiscreen filter plates (catalog number MAFCNOB50; Millipore, Bedford, Mass., USA) were loaded with 25 of activated charcoal (Multiscreen column loader, catalog number MACL09625, Millipore) and washed once with 100 μL of MeOH. Also during the incubation, 96-well DYNEX MicroLite plates (catalog number NL510410) were loaded with 100 μL of MicroScint40 (catalog number 6013641, Packard Bioscience, Meriden, Conn., USA). After the 1 h incubation, 60 μL of the reaction mixture were transferred to the charcoal plates, which were then assembled on top of the DYNEX plates using Centrifuge Alignment Frames (catalog number MACF09604, Millipore). The unbound labeled ethanolamine was centrifuged through to the bottom plate (5 min at 2000 rpm), which was preloaded with the scintillant, as described above. The plates were sealed and left at rt for 1 h before counting on a Hewlett Packard TopCount. Results for compounds tested in these assays are summarized in Table 1, as an average of results obtained. Compounds were tested in free base or trifluoroacetic acid salt forms. Where activity is shown as greater than (>) a particular value, the value is the solubility limit of the compound in the assay medium or the highest concentration tested in the assay.
`O=C(Nc1cnc(-c2ccccc2)nc1)N1CC2(CCN(Cc3cccc(Oc4ccc(Cl)cc4)c3)CC2)C1` [Example 83, 7-(3-(4-chlorophenoxy)benzyl)-N-(2-phenylpyrimidin-5-yl)-2,7-diazaspiro[3.5]nonane-2-carboxamide, trifluoroacetic acid salt] was tested, and the IC50 was 0.02 µM. `O=C(Nc1cccnc1)N1CC2(CCN(Cc3ccc(C(F)(F)F)cc3)CC2)C1` [Example 102, N-(pyridin-3-yl)-7-(4-(trifluoromethyl)benzyl)-2,7-diazaspiro[3.5]nonane-2-carboxamide] was tested, and the IC50 was over 10 µM. `O=C(Nc1cccnc1F)N1CC2(CCN(Cc3cccc(Oc4ccc(Cl)cc4)c3)CC2)C1` [Example 80, 7-(3-(4-chlorophenoxy)benzyl)-N-(2-fluoropyridin-3-yl)-2,7-diazaspiro[3.5]nonane-2-carboxamide, trifluoroacetic acid salt] gave an IC50 of 0.57 µM. `O=C(Nc1nnn[nH]1)N1CC2(CCN(Cc3cccc(Oc4ccc(Cl)cc4)c3)CC2)C1` [Example 51, 7-[3-(4-Chloro-phenoxy)-benzyl]-2,7-diaza-spiro[3.5]nonane-2-carboxylic acid (1H-tetrazol-5-yl)-amide, trifluoroacetic acid salt] gave an IC50 of 0.2 µM. `O=C(Nc1ccc(-n2cnnc2)nc1)N1CC2(CCN(Cc3cccc(Oc4ccc(Cl)cc4)c3)CC2)C1` [Example 47, 7-[3-(4-Chloro-phenoxy)-benzyl]-2,7-diaza-spiro[3.5]nonane-2-carboxylic acid (6-[1,2,4]triazol-4-yl-pyridin-3-yl)-amide, trifluoroacetic acid salt] showed an IC50 of over 10 µM. `O=C(Nc1cccnc1)N1CC2(CCN(Cc3ccc4c(c3)OC(F)(F)O4)CC2)C1` [Example 87, 7-(2,2-Difluoro-benzo[1,3]-dioxol-5-ylmethyl)-2,7-diaza-spiro[3.5]nonane-2-carboxylic acid pyridin-3-ylamide] gave an IC50 of over 10 µM. `O=C(Nc1cccnc1)N1CC2(CCN(Cc3cccc(Cl)c3)CC2)C1` [Example 99, 7-(3-Chloro-benzyl)-2,7-diaza-spiro[3.5]nonane-2-carboxylic acid pyridin-3-ylamide] gave an IC50 of over 10 µM. With `O=C(Nc1cccnc1)N1CC2(CCN(Cc3ccc(Cl)c(C(F)(F)F)c3)CC2)C1` [Example 109, 7-(4-chloro-3-(trifluoromethyl)benzyl)-N-(pyridin-3-yl)-2,7-diazaspiro[3.5]nonane-2-carboxamide] the IC50 was over 10 µM. `O=C(Nc1cccnc1)N1CC2(CCN(Cc3ccccc3Cl)CC2)C1` [Example 98, 7-(2-Chloro-benzyl)-2,7-diaza-spiro[3.5]nonane-2-carboxylic acid pyridin-3-ylamide] gave an IC50 of over 10 µM. `O=C(Nc1cccnc1)N1CCCC2(CN(Cc3cccc(Oc4ccc(Cl)cc4)c3)C2)C1` [Example 26, 2-(3-(4-chlorophenoxy)benzyl)-N-(pyridin-3-yl)-2,6-diazaspiro[3.5]nonane-6-carboxamide] was tested, and the IC50 was 6 µM. In the case of `O=C(Nc1cnc2ccccc2c1)N1CCCC2(CN(Cc3cccc(Oc4ccc(Cl)cc4)c3)C2)C1` [Example 32, 2-(3-(4-chlorophenoxy)benzyl)-N-(quinolin-3-yl)-2,6-diazaspiro[3.5]nonane-6-carboxamide], the IC50 is reported as 0.01 µM.
